Measured values taken from patent US20160194358A1, “LINEAR PEPTIDE ANTIBIOTCS” (priority 2013, published 2016).
≈ marks a conversion by molar mass, not a printed value. *1 amine or outer side, *2 acyl side, *3 side chain or, on linkers, in order; H or OH if unused. Where a SMILES comes first, the peptide text is derived from it. [ ]: non-standard residue; d: D form. The star is where a group is joined. boroAla((+)-pinanediol) = C[C@H](N*)B1O[C@@H]2C[C@@H]3C[C@@H](C3(C)C)[C@]2(C)O1; Biphenylcarbonyl(4'-Bu) = CCCCc1ccc(-c2ccc(C(=O)*)cc2)cc1; X5 = C[C@H](N*)B1OC2C[C@@H]3C[C@@H](C3(C)C)[C@]2(C)O1; Benzoyl(4-(4-Cl-Ph)) = O=C(c1ccc(-c2ccc(Cl)cc2)cc1)*; X16 = O=S(=O)(c1ccc(-c2ccc(Cl)cc2)cc1)*; X11 = CCCCc1ccc(-c2nc(C(=O)*)cs2)cc1; X10 = O=C(c1ccc(-c2ccc(Cl)cc2)nc1)*; X1 = C[C@H](N[*:1])C(=O)C(=O)[*:2]; X3 = CCCCc1ccc(C2CCN(*)CC2)cc1; aThr = C[C@H](O)[C@H](N)C(=O)O; NHPhenethyl = c1ccc(CCN*)cc1; Decanoyl = CCCCCCCCCC(=O)*; X4 = c1ccc(C2CCN(*)CC2)cc1; X6 = NCCCCCCCCCCCCCCC(=O)*; boroAla = C[C@H](N*)B(O)O; Octanoyl = CCCCCCCC(=O)*; X8 = NCCCCCCCCCCCCC(=O)*; Dab = NCC[C@H](N)C(=O)O; Dap = NC[C@H](N)C(=O)O; CO = O=C([*:1])[*:2]; Sar = CNCC(=O)O

Experiments:
[1] = tested on: Escherichia coli strain MC4100 IMP-4213, which harbors an LptD mutation; conditions: E. coli MC4100 IMP-4213; 35° C., 22 hours
Summary of the method: (§1)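 CLSI broth microdilution in cation-adjusted Mueller Hinton Broth with 0.002% Tween-80, two-fold dilutions starting at 64 μg/ml.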

[2] = tested on: methicillin resistant Staphylococcus aureus (MRSA) strain USA300 (NRS384); conditions: MRSA USA300 (NRS384); 35° C., 22 hours
Summary of the method: as §1

[3] = biological target: T1, E. coli SPase (Escherichia coli, UniProt P00803); test: Biochemical SPase activity assay, fluorogenic peptide substrate, E. coli enzyme; conditions: 20 μM substrate, 10 minutes preincubation, read-out: IC 50 (nM) E. coli
T1 construct: Full length His-tagged E. coli SPase proteins; His; made in house; host or cells: E. coli BL21(DE3)
Experimental: Full length His-tagged E. coli SPase proteins were expressed in E. coli BL21(DE3) containing the plasmid pET23-lepB. Briefly, saturated overnight cultures grown in 20 ml of Luria-Bertani medium supplemented with ampicillin were subcultures into 1.5 L of Luria-Bertani, and shaken at 37° C. until an optical density at 600 nm of 0.4-0.5 was achieved.
(§2) Signal peptidase enzyme activity of the above proteins was measured using two fluorogenic peptide substrates (decanoyl-LSSPAYNO2A ? ADKabzPD and decanoyl-LTPTAYNO2A ? ASKKabzDD), where abz is the fluorescence donor 2-aminobenzamide, YNO2 is the fluorescence acceptor 3-nitrotyrosine, and the cleavage site is indicated with an arrow. Enzyme mix solution was prepared by diluting 2.5 nM of Escherichia coli or Staphylococcus aureus SPase protein into reaction buffers consisting of 20 mM PO4 pH 7.4, 100 mM NaCl, and 1% Elugent™ or octyl phenoxypolyethoxylethanol detergent at a concentration of 0.25% or 0.0625%. Reactions were initiated by the addition of substrate to a final concentration of 20 μM. Reaction progress was monitored by measuring the increase in fluorescence signal (excitation at 314 nm, emission at 416 nm) using a SpectraMax M2 fluorescence microplate reader. To determine IC50 values of test compounds, compound stock solutions were prepared in DMSO at a concentration of 1 mM. Three-folder serial dilutions of test compounds, starting at 10 μM, were prepared in enzyme mix solution and incubated at room temperature for 10 minutes. Following this incubation, fluorogenic substrate was added to a final concentration of 20 μM and the increase in fluorescence, corresponding to substrate cleavage, was monitored continuously at room temperature for 1 hour. Initial reaction rates were calculated based on the rate of increase in fluorescence during the reaction. Reaction rates were plotted as a function of compound concentration, and IC50 values are determined nonlinear regression analysis (SoftMaxPro 5.4, Molecular Devices™) of the sigmoidal dose-response curve.

[4] = biological target: S. aureus SPase (Staphylococcus aureus, UniProt P0A070); test: biochemical; conditions: IC 50 (nM) S. aureus, 20 μM substrate, 10 minutes preincubation
Experimental: Full length His-tagged S. aureus SPase protein was expressed similarly from E. coli BL21(DE3) containing the plasmid pCDF1-SaSpsB and purified similarly to the E. coli protein with the following exceptions. SPase protein was solubilized using 300 mM NaCl, 20 mM Tris pH 8.06, 5 mM Imidazole, 10% glycerol, 1% Triton X-100, prior to purification in Ni-NTA Superflow resin and resin bound protein was washed in a similar buffer containing 1% Elugent in place of Triton X-100 prior to protein eluted in wash buffer supplemented with 300 mM imidazole. […] All protein concentrations were determined by BCA assay.
as §2

T1 sequence (P00803 whole entry): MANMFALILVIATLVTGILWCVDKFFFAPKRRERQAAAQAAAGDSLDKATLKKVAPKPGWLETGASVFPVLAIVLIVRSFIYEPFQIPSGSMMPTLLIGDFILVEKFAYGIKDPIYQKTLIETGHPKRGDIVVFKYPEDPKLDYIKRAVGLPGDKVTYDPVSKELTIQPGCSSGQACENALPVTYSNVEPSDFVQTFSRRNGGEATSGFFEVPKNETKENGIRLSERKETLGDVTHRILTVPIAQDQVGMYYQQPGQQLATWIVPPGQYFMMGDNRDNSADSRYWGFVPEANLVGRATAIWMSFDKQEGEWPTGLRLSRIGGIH
Chain of S. aureus SPase (P0A070 whole entry): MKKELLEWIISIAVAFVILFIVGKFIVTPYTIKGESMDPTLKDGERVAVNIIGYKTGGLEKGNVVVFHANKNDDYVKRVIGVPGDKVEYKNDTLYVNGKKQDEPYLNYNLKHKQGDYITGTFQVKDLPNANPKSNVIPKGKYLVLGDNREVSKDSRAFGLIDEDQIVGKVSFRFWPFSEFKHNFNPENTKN

| SMILES | MIC (μg/mL) E. coli [1] [µg/mL] | MIC (μg/mL) S. aureus [2] [µg/mL] | IC50 [3] [nM] | IC50 [4] [nM] |
| --- | --- | --- | --- | --- |
| C[C@H](NC(=O)[C@@H](NC(=O)[C@H](CN)NC(=O)c1ccc(-c2ccc(Cl)cc2)cc1)[C@@H](C)O)C(=O)N[C@@H](CCCCN)C(=O)N[C@@H](C)C(=O)C(=O)NCCc1ccccc1 [Compound 110] ({Benzoyl(4-(4-Cl-Ph))}-[Dap]TAK[X1]-NHPhenethyl) | 64 (≈ 77.9 µM) | 32 (≈ 39 µM) | 6000 | 3800 |
| COC(=O)CNC(=O)C(=O)[C@H](C)NC(=O)[C@H](CCCCN)NC(=O)[C@H](C)NC(=O)[C@@H](NC(=O)[C@H](CN)NC(=O)c1ccc(-c2ccc(Cl)cc2)cc1)[C@@H](C)O [Compound 111] ({Benzoyl(4-(4-Cl-Ph))}-[Dap]TAK[X1]G-OMe) | 16 (≈ 20.3 µM) | 16 (≈ 20.3 µM) | 360 | 690 |
| CC(=O)N[C@@H](CCN)C(=O)N[C@H](C(=O)N[C@@H](C)C(=O)N[C@@H](CCCCN)C(=O)N[C@@H](C)B1O[C@@H]2C[C@@H]3C[C@@H](C3(C)C)[C@]2(C)O1)[C@@H](C)O [Compound 113] (Ac-[Dab]TAK-{boroAla((+)-pinanediol)}) | >64 | >64 | 5700 | 1200 |
| CCCCCCCC(=O)N[C@@H](CCN)C(=O)N[C@H](C(=O)N[C@@H](C)C(=O)N[C@@H](CCCCN)C(=O)N[C@@H](C)B1O[C@@H]2C[C@@H]3C[C@@H](C3(C)C)[C@]2(C)O1)[C@@H](C)O [Compound 114] (Octanoyl-[Dab]TAK-{boroAla((+)-pinanediol)}) | 32 (≈ 42.7 µM) | 13 (≈ 17.3 µM) | 64 | 250 |
| C[C@H](NC(=O)[C@H](CCCCN)NC(=O)[C@H](C)NC(=O)[C@@H](NC(=O)[C@H](CCN)NC(=O)CCCCCCCCCCCCN)[C@@H](C)O)B1O[C@@H]2C[C@@H]3C[C@@H](C3(C)C)[C@]2(C)O1 [Compound 115] (X8-[Dab]TAK-{boroAla((+)-pinanediol)}) | >64 | 11 (≈ 13.2 µM) | 330 | 590 |
| C[C@H](NC(=O)[C@H](CCCCN)NC(=O)[C@H](C)NC(=O)[C@@H](NC(=O)[C@H](CCN)NC(=O)CCCCCCCCCCCCCCN)[C@@H](C)O)B1O[C@@H]2C[C@@H]3C[C@@H](C3(C)C)[C@]2(C)O1 [Compound 116] (X6-[Dab]TAK-{boroAla((+)-pinanediol)}) | 32 (≈ 37.1 µM) | 1.4 (≈ 1.62 µM) | 200 | 480 |
| CCCCCCCCCC(=O)N[C@@H](CCN)C(=O)N[C@H](C(=O)N[C@@H](C)C(=O)N[C@@H](CCCCN)C(=O)N[C@@H](C)B1O[C@@H]2C[C@@H]3C[C@@H](C3(C)C)[C@]2(C)O1)[C@@H](C)O [Compound 117] (Decanoyl-[Dab]TAK-{boroAla((+)-pinanediol)}) | 8 (≈ 10.3 µM) | 2 (≈ 2.57 µM) | 20 | 150 |
| C[C@H](NC(=O)[C@H](CCCCN)NC(=O)[C@H](C)NC(=O)[C@@H](NC(=O)[C@H](CCN)NC(=O)c1ccc(-c2ccc(Cl)cc2)nc1)[C@@H](C)O)B1O[C@@H]2C[C@@H]3C[C@@H](C3(C)C)[C@]2(C)O1 [Compound 118] (X10-[Dab]TAK-{boroAla((+)-pinanediol)}) | 8 (≈ 9.53 µM) | 2 (≈ 2.38 µM) | 15 | 70 |
| C[C@H](NC(=O)[C@H](CCCCN)NC(=O)[C@H](C)NC(=O)[C@@H](NC(=O)[C@H](CCN)NC(=O)c1ccc(-c2ccc(Cl)cc2)cc1)[C@@H](C)O)B(O)O [Compound 119] ({Benzoyl(4-(4-Cl-Ph))}-[Dab]TAK-boroAla) | 2 (≈ 2.84 µM) | 1 (≈ 1.42 µM) | 10 | 120 |
| CCCCCCCCCC(=O)N[C@@H](CCN)C(=O)N[C@H](C(=O)N[C@@H](C)C(=O)N[C@@H](CCCCN)C(=O)N[C@@H](C)B(O)O)[C@@H](C)O [Compound 120] (Decanoyl-[Dab]TAK-boroAla) | 11 (≈ 17.1 µM) | 2.8 (≈ 4.35 µM) | 21 | 120 |
| CCCCc1ccc(-c2nc(C(=O)N[C@@H](CCN)C(=O)N[C@H](C(=O)N[C@@H](C)C(=O)N[C@@H](CCCCN)C(=O)N[C@@H](C)B3O[C@@H]4C[C@@H]5C[C@@H](C5(C)C)[C@]4(C)O3)[C@@H](C)O)cs2)cc1 [Compound 121] (X11-[Dab]TAK-{boroAla((+)-pinanediol)}) | 1.3 (≈ 1.5 µM) | 0.4 (≈ 0.461 µM) | 54 | 280 |
| CCCCc1ccc(-c2ccc(C(=O)N[C@@H](CCN)C(=O)N[C@@H](CCC(N)=O)C(=O)N[C@@H](C)C(=O)N[C@@H](CCCCN)C(=O)N[C@@H](C)B3OC4C[C@@H]5C[C@@H](C5(C)C)[C@]4(C)O3)cc2)cc1 (stereo partly drawn) [Compound 122] ({Biphenylcarbonyl(4'-Bu)}-[Dab]QAK-X5) | 0.2 (≈ 0.225 µM) | 0.4 (≈ 0.451 µM) | 20 | 240 |
| CCCCCCCCCCCCCC(=O)N[C@@H](CCCCN)C(=O)N[C@@H](C)C(=O)N[C@@H](CCCCN)C(=O)N[C@@H](C)B1O[C@@H]2C[C@@H]3C[C@@H](C3(C)C)[C@]2(C)O1 [Compound 123] | 4 (≈ 5.26 µM) | 2 (≈ 2.63 µM) | 11000 | 7800 |
| CCCCc1ccc(-c2ccc(C(=O)N[C@@H](CCN)C(=O)N(C)CC(=O)N[C@@H](C)C(=O)N[C@@H](CCCCN)C(=O)N[C@@H](C)B3O[C@@H]4C[C@@H]5C[C@@H](C5(C)C)[C@]4(C)O3)cc2)cc1 [Compound 124] ({Biphenylcarbonyl(4'-Bu)}-[Dab][Sar]AK-{boroAla((+)-pinanediol)}) | 0.6 (≈ 0.723 µM) | 0.8 (≈ 0.964 µM) | 110 | 2000 |
| CCCCc1ccc(-c2ccc(C(=O)N[C@@H](CCN)C(=O)N[C@H](C(=O)N[C@@H](C)C(=O)N[C@@H](CCCCN)C(=O)N[C@@H](C)B3O[C@@H]4C[C@@H]5C[C@@H](C5(C)C)[C@]4(C)O3)[C@H](C)O)cc2)cc1 [Compound 125] ({Biphenylcarbonyl(4'-Bu)}-[Dab][aThr]AK-{boroAla((+)-pinanediol)}) | 0.4 (≈ 0.465 µM) | 0.4 (≈ 0.465 µM) | 10 | 280 |
| C[C@H](NC(=O)[C@H](CCCCN)NC(=O)[C@H](C)NC(=O)[C@@H](NC(=O)[C@H](CCCCN)NC(=O)N1CCC(c2ccccc2)CC1)[C@@H](C)O)B1O[C@@H]2C[C@@H]3C[C@@H](C3(C)C)[C@]2(C)O1 [Compound 126] ({X4-CO}-KTAK-{boroAla((+)-pinanediol)}) | >64 | 64 (≈ 76.3 µM) | 230 | 250 |
| CCCCc1ccc(C2CCN(C(=O)N[C@@H](CCCCN)C(=O)N[C@H](C(=O)N[C@@H](C)C(=O)N[C@@H](CCCCN)C(=O)N[C@@H](C)B3O[C@@H]4C[C@@H]5C[C@@H](C5(C)C)[C@]4(C)O3)[C@@H](C)O)CC2)cc1 [Compound 127] ({X3-CO}-KTAK-{boroAla((+)-pinanediol)}) | 32 (≈ 35.8 µM) | 2 (≈ 2.23 µM) | 64 | 210 |
| C[C@H](NC(=O)[C@H](CCCCN)NC(=O)[C@H](C)NC(=O)[C@@H](NC(=O)[C@H](CCCCN)NS(=O)(=O)c1ccc(-c2ccc(Cl)cc2)cc1)[C@@H](C)O)B1O[C@@H]2C[C@@H]3C[C@@H](C3(C)C)[C@]2(C)O1 [Compound 128] (X16-KTAK-{boroAla((+)-pinanediol)}) | 64 (≈ 70.9 µM) | 2 (≈ 2.22 µM) | 1200 | 75 |
